Measurements published in ChEMBL document CHEMBL1154435, “Synthesis and anti-inflammatory activity evaluation of unsymmetrical selenides” (Eur J Med Chem, 2008).

What was measured:
Rattus norvegicus [1] = experiment: Antiinflammatory activity against cotton pellets-induced inflammation in Wistar rat assessed as wet weight of granuloma at 10 mg/kg, po after 7 days; format: functional
Rattus norvegicus [2] = experiment: Antiinflammatory activity against cotton pellets-induced inflammation in Wistar rat assessed as dry weight of granuloma at 10 mg/kg, po after 7 days; format: functional
Rattus norvegicus [3] = experiment: Antiinflammatory activity against cotton pellets-induced inflammation in Wistar rat assessed as final weight of granuloma at 10 mg/kg, po after 7 days; format: functional
[4] = Acute toxicity in po dosed mouse assessed as death within 7 days; format: organism-based; conditions: in vivo
Mus musculus [5] = experiment: Safety ratio for toxicity to antiinflammatory activity in po dosed mouse; format: functional
Mus musculus [6] = experiment: Acute toxicity in mouse assessed as occurrence of ataxia and respiratory problems at 600 mg/kg, po within 7 days; format: organism-based; set-up: dose 600 mg/kg, route oral; conditions: in vivo, 168 h
Rattus norvegicus [7] = experiment: Antiinflammatory activity against cotton pellets-induced inflammation in Wistar rat assessed as wet weight of granuloma at 5 mg/kg, po after 7 days; format: functional
Rattus norvegicus [8] = experiment: Antiinflammatory activity against cotton pellets-induced inflammation in Wistar rat assessed as dry weight of granuloma at 5 mg/kg, po after 7 days; format: functional
Rattus norvegicus [9] = experiment: Antiinflammatory activity against cotton pellets-induced inflammation in Wistar rat assessed as final weight of granuloma at 5 mg/kg, po after 7 days; format: functional

SMILES	Activity (Rattus norvegicus [1]) [g]	Activity (Rattus norvegicus [2]) [g]	Activity (Rattus norvegicus [3]) [mg]	LD50 at 168 h [4] [mg/kg]	Ratio (Mus musculus [5])	Activity (Mus musculus [6])	Activity (Rattus norvegicus [7]) [g]	Activity (Rattus norvegicus [8]) [g]	Activity (Rattus norvegicus [9]) [mg]
CNC(=O)c1ccc([Se]Cc2ccccc2)cc1	0.414	0.089	35.7	> 600	>=60				
C#CC[Se]c1ccc(C(=O)NC)cc1	0.447	0.096	41.3	> 600	>=60				
C#CC[Se]c1ccccc1C(=O)O	0.353	0.081	30.9	600	>=60	Toxic			
COc1ccc2c(c1)c(CC(=O)O)c(C)n2C(=O)c1ccc(Cl)cc1 [INDOMETHACIN]				33	3.3		0.307	0.072	21.8
CC(C)=C[Se]c1ccccc1C(=O)O	0.406	0.084	32.8	> 600	>=60				
O=C(O)C[Se]c1ccccc1C(=O)O	0.378	0.085	33.8	> 600	>=60				
CNC(=O)c1ccc([Se]C=C(C)C)cc1	0.369	0.087	33.2	600	>=60	Toxic			
